According to patent publication US20260166045A1, “COMBINATION THERAPY COMPRISING GSPT1-DIRECTED MOLECULAR GLUE DEGRADERS AND PI3K/AKT/mTOR PATHWAY INHIBITORS” (Monte Rosa Therapeutics, Inc., priority 2022, published 2026):

Legend:
[1] = system: RPMI 8226 cell line; test: CTG viability, 11x11 concentration matrix, Loewe synergy (multiple myeloma); conditions: inhibitor combined with compound 1-1, 11x11 matrix, 72 hours
Method: (§4) Cells were cultured in the media recommended by the supplier.
(§5) On the day before compound addition, cells were seeded in 384-well-plates (white with clear flat bottom) at the densities indicated in Table 6 in 40 μL of growth medium. The next day, compounds were dispensed from 10 mM stocks using a HP D300 dispenser according to the concentration matrices described above. For each cell line, the compound concentration matrices were dispensed twice as side-by-side duplicates on one 384-well-plate. In addition, each plate contained 14 wells with only growth medium and 44 wells with cells treated with DMSO alone to calculate the average background and maximal signals, respectively. The final DMSO concentration was normalized to 0.2% across the plates. Plates were then incubated for 72 hours. CellTiter-Glo® Luminescent Cell Viability Assay (CTG, Promega G7570) reagent was prepared according to the manufacturer's instructions. Plates were equilibrated to room temperature for approximately 30 minutes, 25 μL CTG reagent was added to each well and plates were mixed on an orbital shaker for 10 minutes to allow for cell lysis. After further incubation for 20 minutes at room temperature, the clear bottoms of the plates were pasted with white back seal and luminescence was read on an EnVision plate reader (measurement time 0.1 seconds).

[2] = system: WSU-DLCL2 cell line; test: CTG viability, 11x11 concentration matrix, Loewe synergy (lymphoma); conditions: inhibitor combined with compound 1-1, 11x11 matrix, 72 hours
Method: as §4, §5

[3] = system: NCI-H526 cell line; test: CTG viability, 11x11 concentration matrix, Loewe synergy (SCLC); conditions: inhibitor combined with compound 1-1, 11x11 matrix, 72 hours
Method: as §4, §5

[4] = system: DB cell line; test: CTG viability, 11x11 concentration matrix, Loewe synergy (lymphoma); conditions: inhibitor combined with compound 1-1, 11x11 matrix, 72 hours
Method: as §4, §5

[5] = system: CAL51 xenografts; test: CAL51 cell-derived xenograft (CDX) in vivo combination study; parameters: species or system SCID Beige mice; conditions: compound 1-1 3 mg/kg; for antitumor effect vs vehicle (tumor volume): day 21, ANOVA with post hoc Tukey's test; for antitumor effect vs vehicle (tumor volume) / Δ TV ratio to vehicle group (A/C, B/C, (AB)/C): p.o. qd; for Δ TV ratio to vehicle group (A/C, B/C, (AB)/C): day 21, Clarke method; for Δ TV (delta tumor volume): p.o. qd for 21 days, average of four tumors
Method: (§1) Compound 1-1 was formulated every day freshly as a solution in 5% DMSO/95% (30% w/v HPβCD in water). This formulation was also used as vehicle control. Everolimus was formulated as a suspension in 1% MC (400 cps), which was prepared every 3 days.
(§2) Body weights were measured at the same time.
(§3) Compound 1-1 was formulated every day freshly as a solution in 5% DMSO/95% (30% w/v HPβCD in water). This formulation was also used as vehicle control. Alpelisib was formulated as a solution in 20% captisol+80% water (pH adjusted to 4), which was prepared every week.

[6] = system: SU-DHL-6 cell line; test: CTG viability, 11x11 concentration matrix, Loewe synergy (lymphoma); conditions: inhibitor combined with compound 1-1, 11x11 matrix, 72 hours
Method: as §4, §5

[7] = system: MCF7 xenografts; test: MCF7 cell-derived xenograft (CDX) in vivo combination study; parameters: species or system BALB/c nude mice; conditions: compound 1-1 10 mg/kg; for Δ TV ratio to vehicle group (A/C, B/C, (AB)/C): day 28, Clarke method; for Δ TV (delta tumor volume): p.o. qd for 28 days, average of four tumors
Method: […] (0.36 mg) pellets (Innovative Research of America Cat. No.: SE-121, pellet size: 3.0 mm) were implanted 2-3 days before cell inoculation.
as §1, §2
An approximation of drug interactions was made using the method described by Clarke (Clarke et al. 1997. Breast Cancer Res Treat. 46(2-3):255-78). This was applied to […] and can estimate interactions from limited data. In short, for compound A, B, or the combination AB (with control group C), antagonism is predicted when (AB)/C>(A/C)×(B/C), an additive effect is predicted when (AB)/C=(A/C)×(B/C), and synergistic interaction is predicted to occur when (AB)/C<(A/C)×(B/C). Calculations in Table 10B indicate that the interaction of everolimus and compound 1-1 in the MCF7 CDX model is synergistic.
17β-Estradiol (0.36 mg) pellets (Innovative Research of America Cat. No.: SE-121, pellet size: 3.0 mm) were implanted 2-3 days before cell inoculation.
as §3

[8] = system: MM.1S cell line; test: CTG viability, 11x11 concentration matrix, Loewe synergy (multiple myeloma); conditions: inhibitor combined with compound 1-1, 11x11 matrix, 72 hours
Method: as §4, §5

[9] = system: NCI-H1836 cell line; test: CTG viability, 11x11 concentration matrix, Loewe synergy (SCLC); conditions: inhibitor combined with compound 1-1, 11x11 matrix, 72 hours
Method: as §4, §5

[10] = system: OPM-2 cell line; test: CTG viability, 11x11 concentration matrix, Loewe synergy (multiple myeloma); conditions: inhibitor combined with compound 1-1, 11x11 matrix, 72 hours
Method: as §4, §5

[11] = system: NCI-H69 cell line; test: CTG viability, 11x11 concentration matrix, Loewe synergy (SCLC); conditions: inhibitor combined with compound 1-1, 11x11 matrix, 72 hours
Method: as §4, §5

[12] = system: NCI-H209 cell line; test: as above; conditions: inhibitor combined with compound 1-1, 11x11 matrix, 72 hours
Method: as §4, §5

[13] = system: KMS-34 cell line; test: CTG viability, 11x11 concentration matrix, Loewe synergy (multiple myeloma); conditions: inhibitor combined with compound 1-1, 11x11 matrix, 72 hours
Method: as §4, §5

[14] = system: RAJI cell line; test: CTG viability, 11x11 concentration matrix, Loewe synergy (lymphoma); conditions: inhibitor combined with compound 1-1, 11x11 matrix, 72 hours
Method: as §4, §5

[15] = system: U266B1 cell line; test: CTG viability, 11x11 concentration matrix, Loewe synergy (multiple myeloma); conditions: inhibitor combined with compound 1-1, 11x11 matrix, 72 hours
Method: as §4, §5

[16] = system: NCI-H1876 cell line; test: CTG viability, 11x11 concentration matrix, Loewe synergy (SCLC); conditions: inhibitor combined with compound 1-1, 11x11 matrix, 72 hours
Method: as §4, §5

[17] = system: DOHH-2 cell line; test: CTG viability, 11x11 concentration matrix, Loewe synergy (lymphoma); conditions: inhibitor combined with compound 1-1, 11x11 matrix, 72 hours
Method: as §4, §5

[18] = system: PDX models LU5188, LU5247, LU5236, LU1508, LU5215, LU5137; test: Lung cancer patient-derived xenograft (PDX) in vivo combination study; parameters: species or system BALB/c nude or NOD/SCID mice; conditions: six lung cancer PDX models; everolimus 5 mg/kg qd p.o.
Method: • Models: The study was conducted at Crown Bioscience with the PDX models LU5188 (small cell lung neuroendocrine carcinoma), LU5247 (non-small cell lung adenocarcinoma), LU5236 (small cell lung neuroendocrine carcinoma), LU1508 (small cell lung neuroendocrine carcinoma), LU5215 (small cell lung neuroendocrine carcinoma), and LU5137 (large cell neuroendocrine carcinoma). • Animals: BALB/c nude (LU1508) or NOD/SCID (all other models) female mice, 5-7 weeks old, weighing approximately 22-25 g, were purchased from certified vendors.
Tumor Inoculation: Fresh tumor tissues was harvest from tumor bearing mice, cut into small pieces (approximately 2-3 mm in diameter) and was kept in RPMI1640 cell culture medium at 4° C.). Lidocaine cream was applied to the PDX fragment inoculation site 1 hour before the operation. In addition, hair was removed from NOD/SCID mice before fragment implantation. Each animal was disinfected at the inoculation site with alcohol swap, PDX tumor fragments were inserted subcutaneously at the upper right dorsal flank with a trocar. The trocar was withdrawn any air bubbles under the skin were extruded.
Both compounds were administered orally.
as §2

SMILES | Mean Loewe synergy score, RPMI 8226 [1] | Mean Loewe synergy score, WSU-DLCL2 [2] | Mean Loewe synergy score, NCI-H526 [3] | Mean Loewe synergy score, DB [4] | Mean Loewe synergy score, SUDHL6 [6] | Mean Loewe synergy score, MM.1S [8] | Mean Loewe synergy score, NCI-H1836 [9] | Mean Loewe synergy score, OPM-2 [10] | Mean Loewe synergy score, NCI-H69 [11] | Mean Loewe synergy score, NCI-H209 [12] | Mean Loewe synergy score, KMS-34 [13] | Mean Loewe synergy score, RAJI [14] | Mean Loewe synergy score, U266B1 [15] | Mean Loewe synergy score, NCI-H1876 [16] | Mean Loewe synergy score, DOHH2 [17] | also measured
Cc1nc(NC(=O)N2CCC[C@H]2C(N)=O)sc1-c1ccnc(C(C)(C)C(F)(F)F)c1 [Alpelisib, (2S)-1-N-[4-methyl-5-[2-(1,1,1-trifluoro-2-methylpropan-2-yl)pyridin-4-yl]-1,3-thiazol-2-yl]pyrrolidine-1,2-dicarboxamide] | 0.9 | −2.69 | 3.7 | −2.27 | −6.28 | 3.44 | 1.69 | −2.51 | 5.05 | 1.49 | 7.85 | 2.05 | 0.13 | 1.64 | 1.59 | antitumor effect vs vehicle (tumor volume) ([5]; alpelisib 20 mg/kg): neither alpelisib nor compound 1-1 produced a statistically significant antitumor effect; Δ TV ratio to vehicle group (A/C, B/C, (AB)/C) ([5]; alpelisib 20 mg/kg): 0.76; Δ TV (delta tumor volume) ([5]; day 21, alpelisib 20 mg/kg, combination 20 + 3 mg/kg): 425 mm3; anti-tumor effect compared to vehicle ([7]; day 28, ANOVA with post hoc Tukey's test, alpelisib 50 mg/kg, p.o. qd): significant anti-tumor effect; Δ TV ratio to vehicle group (A/C, B/C, (AB)/C) ([7]; alpelisib 50 mg/kg, p.o. qd): 0.15; Δ TV (delta tumor volume) ([7]; day 28, alpelisib 50 mg/kg, combination 50 + 10 mg/kg): 91 mm^3
NC1(C(=O)N[C@@H](CCO)c2ccc(Cl)cc2)CCN(c2ncnc3[nH]ccc23)CC1 [Capivasertib, 4-amino-N-[(1S)-1-(4-chlorophenyl)-3-hydroxypropyl]-1-(7H-pyrrolo[2,3-d]pyrimidin-4-yl)piperidine-4-carboxamide] | 4.81 | 0.95 | 4.3 | 0.29 | −1.92 | 2.63 | 1.9 | −1 | 7.38 | 0.85 | 7.48 | 2.97 | 1.76 | 0.7 | 2.89 | –
CO[C@H]1C[C@@H]2CC[C@@H](C)[C@@](O)(O2)C(=O)C(=O)N2CCCC[C@H]2C(=O)O[C@H]([C@H](C)C[C@@H]2CC[C@@H](OCCO)[C@H](OC)C2)CC(=O)[C@H](C)/C=C(\C)[C@@H](O)[C@@H](OC)C(=O)[C@H](C)C[C@H](C)/C=C/C=C/C=C/1C [Everolimus, (1R,9S,12S,15R,16E,18R,19R,21R,23S,24E,26E,28E,30S,32S,35R)-1,18-dihydroxy-12-[(2R)-1-[(1S,3R,4R)-4-(2-hydroxyethoxy)-3-methoxycyclohexyl]propan-2-yl]-19,30-dimethoxy-15,17,21,23,29,35-hexamethyl-11,36-dioxa-4-azatricyclo[30.3.1.0^4,9]hexatriaconta-16,24,26,28-tetraene-2,3,10,14,20-pentone] | 20.75 | 8.29 | 6.49 | 5.81 | 12.05 | 6.7 | 1.58 | 5.3 | 9.46 | 6.14 | 16.19 | 14.66 | 4.16 | −0.29 | 6.48 | body weight loss [18]: Body weight loss was caused by everolimus dosing; antitumor effect vs vehicle (tumor volume) ([5]; everolimus 2 mg/kg): did not significantly impede tumor growth; Δ TV ratio to vehicle group (A/C, B/C, (AB)/C) ([5]; everolimus 2 mg/kg): 0.87; Δ TV (delta tumor volume) ([5]; day 21, everolimus 2 mg/kg, combination 2 + 3 mg/kg): 491 mm3; antitumor effect vs vehicle (tumor volume) ([7]; day 28, ANOVA with post hoc Tukey's test, everolimus 2 mg/kg, p.o. qd): statistically significant antitumor effects; Δ TV ratio to vehicle group (A/C, B/C, (AB)/C) ([7]; everolimus 2 mg/kg, p.o. qd): 0.26; Δ TV (delta tumor volume) ([7]; day 28, everolimus 2 mg/kg, combination 2 + 10 mg/kg): 164 mm3
Nc1cc(C(F)(F)F)c(-c2cc(N3CCOCC3)nc(N3CCOCC3)n2)cn1 [buparlisib, 5-(2,6-dimorpholin-4-ylpyrimidin-4-yl)-4-(trifluoromethyl)pyridin-2-amine] | 3.57 | −3.1 | −0.21 | 1.26 | −2.5 | 1.48 | 1.64 | −1.38 | 4.09 | 0.78 | 5.94 | 1.34 | −0.19 | 0.017 | 1.11 | –
